Measured values: PMC5468338, “Novel Class IIa-Selective Histone Deacetylase Inhibitors Discovered Using an in Silico Virtual Screening Approach” (Scientific Reports, 2017)

Molecular target: HDAC4 (Homo sapiens, UniProt P56524)
Experiment: HDAC fluorometric activity assay, HDAC4
Details: tested at 40 μM, SAHA as reference
Description: A fluorogenic based assay[54] was used to validate the 40 candidate compounds.

HDAC4, sequence (P56524 whole entry): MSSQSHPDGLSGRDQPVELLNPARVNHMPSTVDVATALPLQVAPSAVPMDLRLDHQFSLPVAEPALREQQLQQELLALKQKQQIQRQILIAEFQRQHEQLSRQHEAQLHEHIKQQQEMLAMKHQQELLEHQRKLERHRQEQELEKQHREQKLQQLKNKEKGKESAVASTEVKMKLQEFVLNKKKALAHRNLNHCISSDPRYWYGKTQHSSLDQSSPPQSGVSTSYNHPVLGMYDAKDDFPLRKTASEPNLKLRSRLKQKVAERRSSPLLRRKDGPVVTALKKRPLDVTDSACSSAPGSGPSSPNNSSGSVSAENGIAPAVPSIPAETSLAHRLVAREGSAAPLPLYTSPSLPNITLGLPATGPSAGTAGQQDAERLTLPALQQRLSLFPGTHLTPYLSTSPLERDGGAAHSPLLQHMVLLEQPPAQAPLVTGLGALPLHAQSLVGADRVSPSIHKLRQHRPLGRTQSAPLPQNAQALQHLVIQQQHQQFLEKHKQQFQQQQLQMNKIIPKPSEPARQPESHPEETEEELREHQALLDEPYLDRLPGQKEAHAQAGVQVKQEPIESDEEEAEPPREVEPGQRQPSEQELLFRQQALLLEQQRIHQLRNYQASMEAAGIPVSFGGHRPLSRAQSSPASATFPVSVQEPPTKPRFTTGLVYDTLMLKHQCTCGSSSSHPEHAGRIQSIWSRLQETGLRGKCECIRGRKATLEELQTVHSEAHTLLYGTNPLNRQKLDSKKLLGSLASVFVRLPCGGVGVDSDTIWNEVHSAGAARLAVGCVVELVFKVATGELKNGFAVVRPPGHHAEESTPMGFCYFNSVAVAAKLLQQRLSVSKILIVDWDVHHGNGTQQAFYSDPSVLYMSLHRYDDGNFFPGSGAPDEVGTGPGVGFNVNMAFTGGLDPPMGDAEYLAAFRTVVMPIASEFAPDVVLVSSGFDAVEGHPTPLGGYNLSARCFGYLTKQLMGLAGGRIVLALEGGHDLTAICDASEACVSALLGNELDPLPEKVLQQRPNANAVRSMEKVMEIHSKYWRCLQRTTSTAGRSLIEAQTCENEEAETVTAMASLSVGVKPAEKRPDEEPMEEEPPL

In the case of O=C(C=Cc1ccc(O)c(O)c1)c1ccc(O)c(O)c1O [Compound A93087], the “HDAC4 inhibitory activity in initial screen compared to SAHA” value is reported as “significantly higher inhibitory activities”.
